Test results published in patent US20200131196A1 (Mount Tam Therapeutics, Inc., priority 2017, published 2020).

Tests used:
[1] = tested on: CEM-C1; assay: OncoPanel cell proliferation assay, CEM-C1; type: cell-based, human
Method: (§1) Cells were grown in RPMI 1640, 10% FBS, 2 mM L-alanyl-L-glutamine, 1 mM Na pyruvate, or a special medium. Cells were seeded into 384-well plates and incubated in a humidified atmosphere of 5% CO2 at 37° C. Compounds were added the day following cell seeding. At the same time, a time zero untreated cell plate was generated. After a 3-day incubation period, cells were fixed and stained to allow fluorescence imaging of nuclei. Compounds (1 mM stock solutions) were serially diluted in half-log steps from the highest test concentration ([…]), and assayed over 10 concentrations with a maximum assay concentration of 0.1% DMSO. Automated fluorescence microscopy was carried out using a Molecular Devices ImageXpress Micro XL high-content imager, and images were collected with a 4× objective. 16-bit TIFF images were acquired and analyzed with MetaXpress 5.1.0.41 software.
(§2) Cell proliferation was measured by the fluorescence intensity of an incorporated nuclear dye. The output is referred to as the relative cell count, where the measured nuclear intensity is transformed to percent of control (POC) using the following formula: […]
(§3) Cellular response parameters were calculated using nonlinear regression to a sigmoidal single-site dose response model:
(§4) EC50 is the test compound concentration at the curve inflection point or half the effective response (parameter C of the fitted curve solution). GI50 is the concentration needed to reduce the observed growth by half (midway between the curve maximum and the time zero value). “Cell Count Activity Area” is an estimate of the integrated area above the curve (Barretina, et al. The Cancer Cell Line Encyclopedia enables predictive modelling of anticancer drug sensitivity. Nature 483: 603-607). […] In rare instances, values <0 or >10 may be observed. […] Curve-fitting, calculations, and report generation was performed using a custom data reduction engine and MathIQ based software (AIM).

[2] = tested on: SW684; assay: OncoPanel cell proliferation assay, SW684; type: cell-based, human
Method: as §1, with “Cells” for “Cells were grown in RPMI 1640, 10% FBS, 2 mM L-alanyl-L-glutamine, 1 mM Na pyruvate, or a special medium. Cells”
as §2, §3
GI50 is the concentration needed to reduce the observed growth by half (midway between the curve maximum and the time zero value). […] In rare instances, values <0 or >10 may be observed. […] Curve-fitting, calculations, and report generation was performed using a custom data reduction engine and MathIQ based software (AIM).

[3] = tested on: SK-UT-1; assay: OncoPanel cell proliferation assay, SK-UT-1
Method: (§5) Cells were seeded into 384-well plates and incubated in a humidified atmosphere of 5% CO2 at 37° C. Compounds were added the day following cell seeding. At the same time, a time zero untreated cell plate was generated. After a 3-day incubation period, cells were fixed and stained to allow fluorescence imaging of nuclei. Compounds (1 mM stock solutions) were serially diluted in half-log steps from the highest test concentration (1 micromol), and assayed over 10 concentrations with a maximum assay concentration of 0.1% DMSO. Automated fluorescence microscopy was carried out using a Molecular Devices ImageXpress Micro XL high-content imager, and images were collected with a 4× objective. 16-bit TIFF images were acquired and analyzed with MetaXpress 5.1.0.41 software.

[4] = tested on: Hs 852.T; assay: OncoPanel cell proliferation assay, Hs 852.T; type: cell-based, human
Method: as §1, §2, §3, §4

[5] = tested on: NCIH446; assay: OncoPanel cell proliferation assay, NCIH446; type: cell-based, human
Method: as §1, §2, §3, §4

[6] = tested on: RKOE6; assay: OncoPanel cell proliferation assay, RKOE6
Method: as §5

[7] = tested on: G-402; assay: OncoPanel cell proliferation assay, G-402; type: cell-based, human
Method: as §1, §2, §3, §4

[8] = Homo sapiens, read-out: Cell Count EC50
[9] = Homo sapiens, read-out: Cell Count GI50
[10] = Homo sapiens, read-out: Cell Count IC50

## CO[C@H]1C[C@@H]2CC[C@@H](C)[C@@](O)(O2)C(=O)C(=O)N2CCCC[C@H]2C(=O)O[C@H]([C@H](C)C[C@H]2C[C@H]3C[C@@H]2C[C@@H]3O)CC(=O)[C@H](C)/C=C(\C)[C@@H](O)[C@@H](OC)C(=O)[C@H](C)C[C@H](C)/C=C/C=C/C=C/1C [Formula II, C37-[(1R,2S,4R,5S)-5-hyhroxybicyclo[2.2.1]heptane] rapamycin]
[1]
  Cell Count Activity Area: 3.13
[1]; 1.00E+00 microM
  Relative cell count (%) Mean: 51.5%
[1]; 1.00E-01 microM
  Relative cell count (%) Mean: 56.2%
[1]; 1.00E-02 microM
  Relative cell count (%) Mean: 66.8%
[1]; 1.00E-03 microM
  Relative cell count (%) Mean: 82.0%
[1]; 1.01E-04 microM
  Relative cell count (%) Mean: 98.1%
[1]; 3.16E-01 microM
  Relative cell count (%) Mean: 52.4%
[1]; 3.17E-02 microM
  Relative cell count (%) Mean: 58.8%
[1]; 3.17E-03 microM
  Relative cell count (%) Mean: 73.0%
[1]; 3.18E-04 microM
  Relative cell count (%) Mean: 92.1%
[1]; 3.18E-05 microM
  Relative cell count (%) Mean: 100.6%
[1]; [8]
  EC50: 1.8 nM
[1]; [9]
  GI50: 32.5 nM
[1]; [10]
  IC50: 265 nM
[2]
  Cell Count Activity Area: 2.97
[2]; 1.00E+00 microM
  Relative cell count (%) Mean: 49.0%
[2]; 1.00E-01 microM
  Relative cell count (%) Mean: 55.6%
[2]; 1.00E-02 microM
  Relative cell count (%) Mean: 71.4%
[2]; 1.00E-03 microM
  Relative cell count (%) Mean: 85.1%
[2]; 1.01E-04 microM
  Relative cell count (%) Mean: 94.1%
[2]; 3.16E-01 microM
  Relative cell count (%) Mean: 52.4%
[2]; 3.17E-02 microM
  Relative cell count (%) Mean: 63.3%
[2]; 3.17E-03 microM
  Relative cell count (%) Mean: 71.8%
[2]; 3.18E-04 microM
  Relative cell count (%) Mean: 86.4%
[2]; 3.18E-05 microM
  Relative cell count (%) Mean: 99.5%
[2]; [8]
  EC50: 4.57 nM
[2]; [9]
  GI50: 2.19 nM
[2]; [10]
  IC50: 370 nM
[3]; Homo sapiens, SK-UT-1, read-out: Cell Count EC50
  EC50: 1.51 nM
[3]; Homo sapiens, SK-UT-1, read-out: Cell Count GI50
  GI50: 11.3 nM
[3]; Homo sapiens, SK-UT-1, read-out: Cell Count IC50
  IC50: 38.2 nM
[3]; SK-UT-1
  Cell Count Activity Area: 3.48
[3]; SK-UT-1, 1.00E+00 microM
  Relative cell count (%) Mean: 47.0%
[3]; SK-UT-1, 1.00E-01 microM
  Relative cell count (%) Mean: 59.0%
[3]; SK-UT-1, 1.00E-02 microM
  Relative cell count (%) Mean: 76.1%
[3]; SK-UT-1, 1.00E-03 microM
  Relative cell count (%) Mean: 82.8%
[3]; SK-UT-1, 1.01E-04 microM
  Relative cell count (%) Mean: 114.4%
[3]; SK-UT-1, 3.16E-01 microM
  Relative cell count (%) Mean: 53.3%
[3]; SK-UT-1, 3.17E-02 microM
  Relative cell count (%) Mean: 61.4%
[3]; SK-UT-1, 3.17E-03 microM
  Relative cell count (%) Mean: 75.4%
[3]; SK-UT-1, 3.18E-04 microM
  Relative cell count (%) Mean: 96.2%
[3]; SK-UT-1, 3.18E-05 microM
  Relative cell count (%) Mean: 116.9%
[4]
  Cell Count Activity Area: 0.95
[4]; 1.00E+00 microM
  Relative cell count (%) Mean: 72.0%
[4]; 1.00E-01 microM
  Relative cell count (%) Mean: 80.1%
[4]; 1.00E-02 microM
  Relative cell count (%) Mean: 91.2%
[4]; 1.00E-03 microM
  Relative cell count (%) Mean: 92.9%
[4]; 1.01E-04 microM
  Relative cell count (%) Mean: 98.7%
[4]; 3.16E-01 microM
  Relative cell count (%) Mean: 73.2%
[4]; 3.17E-02 microM
  Relative cell count (%) Mean: 82.3%
[4]; 3.17E-03 microM
  Relative cell count (%) Mean: 90.6%
[4]; 3.18E-04 microM
  Relative cell count (%) Mean: 92.8%
[4]; 3.18E-05 microM
  Relative cell count (%) Mean: 95.0%
[4]; [8]
  EC50: > 1000 nM
[4]; [9]
  GI50: > 1000 nM
[4]; [10]
  IC50: > 1000 nM
[5]
  Cell Count Activity Area: 1.23
[5]; 1.00E+00 microM
  Relative cell count (%) Mean: 80.9%
[5]; 1.00E-01 microM
  Relative cell count (%) Mean: 83.6%
[5]; 1.00E-02 microM
  Relative cell count (%) Mean: 83.2%
[5]; 1.00E-03 microM
  Relative cell count (%) Mean: 93.7%
[5]; 1.01E-04 microM
  Relative cell count (%) Mean: 102.5%
[5]; 3.16E-01 microM
  Relative cell count (%) Mean: 74.9%
[5]; 3.17E-02 microM
  Relative cell count (%) Mean: 83.3%
[5]; 3.17E-03 microM
  Relative cell count (%) Mean: 85.8%
[5]; 3.18E-04 microM
  Relative cell count (%) Mean: 87.3%
[5]; 3.18E-05 microM
  Relative cell count (%) Mean: 94.2%
[5]; Homo sapiens, NCI-H446, read-out: Cell Count EC50
  EC50: > 1000 nM
[5]; Homo sapiens, NCI-H446, read-out: Cell Count GI50
  GI50: > 1000 nM
[5]; Homo sapiens, NCI-H446, read-out: Cell Count IC50
  IC50: > 1000 nM
[6]; Homo sapiens, RKOE6, read-out: Cell Count EC50
  EC50: 1.13 nM
[6]; Homo sapiens, RKOE6, read-out: Cell Count GI50
  GI50: 5.57 nM
[6]; Homo sapiens, RKOE6, read-out: Cell Count IC50
  IC50: 14.2 nM
[6]; RKOE6
  Cell Count Activity Area: 3.66
[6]; RKOE6, 1.00E+00 microM
  Relative cell count (%) Mean: 40.1%
[6]; RKOE6, 1.00E-01 microM
  Relative cell count (%) Mean: 43.1%
[6]; RKOE6, 1.00E-02 microM
  Relative cell count (%) Mean: 52.2%
[6]; RKOE6, 1.00E-03 microM
  Relative cell count (%) Mean: 64.1%
[6]; RKOE6, 1.01E-04 microM
  Relative cell count (%) Mean: 94.2%
[6]; RKOE6, 3.16E-01 microM
  Relative cell count (%) Mean: 43.1%
[6]; RKOE6, 3.17E-02 microM
  Relative cell count (%) Mean: 49.1%
[6]; RKOE6, 3.17E-03 microM
  Relative cell count (%) Mean: 65.3%
[6]; RKOE6, 3.18E-04 microM
  Relative cell count (%) Mean: 84.4%
[6]; RKOE6, 3.18E-05 microM
  Relative cell count (%) Mean: 98.6%
[7]
  Cell Count Activity Area: 4.75
